From US12139492B2 (Endotarget Inc., priority 2021, dated 2024) come the findings set out here.

Test [1] has as its system JeKo-1 cells. The test is described as follows: Antiproliferative effect, MTS cell viability assay, JeKo-1 cells. Type of test: cell-based. To be noted: Homo sapiens; JeKo-1 mantle cell lymphoma cells; read-out: IC50 (anti-proliferation) JeKO-1 cells. The gist of the method: (§1)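 Steps: seed B-cell lymphoma line; add compound at 0, 0.001, 0.01, 0.1, 1 or 10 μM; incubate 72 h; add MTS and read reduced tetrazolium (formazan) absorbance at 490 nm.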

The target in test [2] is BTK (Homo sapiens, UniProt Q06187). In words: Degradation of BTK protein in Namalwa cells (Western blot; DC50, Dmax). To be noted: for DC50: BTK degradation, cell line not given.
Test [3] has as its system Mino cells. In words: Antiproliferative effect, MTS cell viability assay, Mino cells. Type of test: cell-based. To be noted: Homo sapiens, MINO, Mino mantle cell lymphoma cells; read-out: IC50 (anti-proliferation) Mino cells. The gist of the method:
as §1

Where only a bound is given, the exact number is not on record here.

Sequence of BTK (Q06187 whole entry): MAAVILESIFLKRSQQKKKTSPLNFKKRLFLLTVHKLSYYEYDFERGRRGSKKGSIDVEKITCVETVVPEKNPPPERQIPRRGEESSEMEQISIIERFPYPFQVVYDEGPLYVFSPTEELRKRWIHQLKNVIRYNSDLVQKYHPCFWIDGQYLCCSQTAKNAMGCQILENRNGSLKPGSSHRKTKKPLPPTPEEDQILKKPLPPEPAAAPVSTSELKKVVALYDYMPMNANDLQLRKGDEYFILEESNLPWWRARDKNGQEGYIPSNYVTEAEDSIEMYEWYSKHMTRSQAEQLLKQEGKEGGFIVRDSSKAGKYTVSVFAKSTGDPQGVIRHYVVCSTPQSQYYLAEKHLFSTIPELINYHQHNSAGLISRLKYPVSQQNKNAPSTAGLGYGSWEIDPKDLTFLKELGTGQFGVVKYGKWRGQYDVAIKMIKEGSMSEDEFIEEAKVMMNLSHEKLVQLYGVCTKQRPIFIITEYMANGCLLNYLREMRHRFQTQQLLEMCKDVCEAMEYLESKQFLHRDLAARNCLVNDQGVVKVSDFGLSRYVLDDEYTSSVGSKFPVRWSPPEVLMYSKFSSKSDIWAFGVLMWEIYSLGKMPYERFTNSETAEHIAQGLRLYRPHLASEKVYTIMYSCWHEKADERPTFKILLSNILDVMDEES

Consider `NC(=O)c1c(-c2ccc(Oc3ccccc3)cc2)nn2c1NCCC2C1CCN(C(=O)N2CCC(CCN3CCC(c4ccc5c(c4)CN(C4CCC(=O)NC4=O)C5=O)CC3)CC2)CC1` (centres unmarked) [Compound 286, 7-(1-(4-(2-(4-(2-(2,6-dioxopiperidin-3-yl)-1-oxoisoindolin-5-yl)piperidin-1-yl)ethyl)piperidine-1-carbonyl)piperidin-4-yl)-2-(4-phenoxyphenyl)-4,5,6,7-tetrahydropyrazolo[1,5-a]pyrimidine-3-carboxamide], for which the IC50 in test [1] was in the range of 1 to 10 µM. Also, in test [2], the Dmax is greater than 75% and the DC50 is greater than 0.05 µM. Moreover, the IC50 in test [3] was 1 to 10 µM.

For `NC(=O)c1c(-c2ccc(Oc3ccccc3)cc2)nn2c1NCCC2C1CCN(C(=O)N2CCN(CCN3CCC(c4ccc5c(c4)C(=O)N(C4CCC(=O)NC4=O)C5=O)CC3)CC2)CC1` (centres unmarked) [Compound 287], in test [1], the IC50 was greater than 10 µM. In test [2], this compound had a Dmax greater than 75% and a DC50 of 0.01 to 0.05 µM. Further, the IC50 in test [3] fell in the range of 1 to 10 µM.

As to `NC(=O)c1c(-c2ccc(Oc3ccccc3)cc2)nn2c1NCCC2C1CCN(C(=O)N2CCN(CCN3CCC(c4ccc5c(c4)CN(C4CCC(=O)NC4=O)C5=O)CC3)CC2)CC1` (centres unmarked) [Compound 288, 7-(1-(4-(2-(4-(2-(2,6-dioxopiperidin-3-yl)-1-oxoisoindolin-5-yl)piperidin-1-yl)ethyl)piperazine-1-carbonyl)piperidin-4-yl)-2-(4-phenoxyphenyl)-4,5,6,7-tetrahydropyrazolo[1,5-a]pyrimidine-3-carboxamide], the IC50 in test [1] and in test [3] was 1 to 10 µM each time. In test [2], the Dmax was greater than 75%. Also, the DC50 in test [2] was 0.01 to 0.05 µM.

Take `NC(=O)c1c(-c2ccc(Oc3ccccc3)cc2)nn2c1NCC[C@H]2C1CCN(C(=O)N2CCN(CC3CCN(c4ccc5c(c4)C(=O)N(C4CCC(=O)NC4=O)C5=O)CC3)CC2)CC1` (stereo partly drawn) [Compound 289, (7S)-7-(1-(4-((1-(2-(2,6-dioxopiperidin-3-yl)-1,3-dioxoisoindolin-5-yl)piperidin-4-yl)methyl)piperazine-1-carbonyl)piperidin-4-yl)-2-(4-phenoxyphenyl)-4,5,6,7-tetrahydropyrazolo[1,5-a]pyrimidine-3-carboxamide]: the IC50 in test [1] is less than 1 µM; in test [3], 1 to 10 µM. In addition, the Dmax in test [2] is greater than 90%. In test [2], this compound returned a DC50 of 0.01 to 0.05 µM.

With `NC(=O)c1c(-c2ccc(Oc3ccccc3)cc2)nn2c1NCC[C@H]2C1CCN(C(=O)N2CCN(CC3CCN(c4ccc5c(c4)CN(C4CCC(=O)NC4=O)C5=O)CC3)CC2)CC1` (stereo partly drawn) [Compound 290, (7S)-7-(1-(4-((1-(2-(2,6-dioxopiperidin-3-yl)-1-oxoisoindolin 5-yl)piperidin-4-yl)methyl)piperazine-1-carbonyl)piperidin-4-yl)-2-(4-phenoxyphenyl)-4,5,6,7-tetrahydropyrazolo[1,5-a]pyrimidine-3-carboxamide], the IC50 in test [1] is less than 1 µM. In test [2], this compound had a Dmax greater than 90% and a DC50 of less than 0.01 µM. Further, the IC50 in test [3] was in the range of 1 to 10 µM.

Turning to `NC(=O)c1c(-c2ccc(Oc3ccccc3)cc2)nn2c1NCC[C@H]2C1CCN(C(=O)N2CCC(CN3CCN(c4ccc5c(c4)C(=O)N(C4CCC(=O)NC4=O)C5=O)CC3)CC2)CC1` (stereo partly drawn) [Compound 291, (7S)-7-(1-(4-((4-(2-(2,6-dioxopiperidin-3-yl)-1,3-dioxoisoindolin-5-yl)piperazin-1-yl)methyl)piperidine-1-carbonyl)piperidin-4-yl)-2-(4-phenoxyphenyl)-4,5,6,7-tetrahydropyrazolo[1,5-a]pyrimidine-3-carboxamide], the IC50 in test [1] was less than 1 µM. Also, in test [2], the Dmax is greater than 90% and the DC50 lay in the range of 0.01 to 0.05 µM. Also, the IC50 in test [3] is less than 1 µM.

For `NC(=O)c1c(-c2ccc(Oc3ccccc3)cc2)nn2c1NCC[C@H]2C1CCN(C(=O)N2CCC(CN3CCN(c4ccc5c(c4)CN(C4CCC(=O)NC4=O)C5=O)CC3)CC2)CC1` (stereo partly drawn) [Compound 292, (7S)-7-(1-(4-((4-(2-(2,6-dioxopiperidin-3-yl)-1-oxoisoindolin-5-yl)piperazin-1-yl)methyl)piperidine-1-carbonyl)piperidin-4-yl)-2-(4-phenoxyphenyl)-4,5,6,7-tetrahydropyrazolo[1,5-a]pyrimidine-3-carboxamide], the IC50 in test [1] is less than 1 µM. In test [2], this compound displayed a Dmax greater than 90% and a DC50 of less than 0.01 µM. Besides, the IC50 in test [3] is less than 1 µM.

Regarding `NC(=O)c1c(-c2ccc(Oc3ccccc3)cc2)nn2c1NCC[C@H]2C1CCN(C(=O)N2CCC(CC3CCN(c4ccc5c(c4)C(=O)N(C4CCC(=O)NC4=O)C5=O)CC3)CC2)CC1` (stereo partly drawn) [Compound 293, (7S)-7-(1-(4-((1-(2-(2,6-dioxopiperidin-3-yl)-1,3-dioxoisoindolin-5-yl)piperidin-4-yl)methyl)piperidine-1-carbonyl)piperidin-4-yl)-2-(4-phenoxyphenyl)-4,5,6,7-tetrahydropyrazolo[1,5-a]pyrimidine-3-carboxamide], the IC50 in test [1] was 1 to 10 µM; in test [3], less than 1 µM. The compound further displayed a Dmax in test [2] greater than 90%. The DC50 in test [2] was 0.01 to 0.05 µM.

Take `NC(=O)c1c(-c2ccc(Oc3ccccc3)cc2)nn2c1NCC[C@H]2C1CCN(C(=O)N2CCC(CC3CCN(c4ccc5c(c4)CN(C4CCC(=O)NC4=O)C5=O)CC3)CC2)CC1` (stereo partly drawn) [Compound 294, (7S)-7-(1-(4-((1-(2-(2,6-dioxopiperidin-3-yl)-1-oxoisoindolin-5-yl)piperidin-4-yl)methyl)piperidine-1-carbonyl)piperidin-4-yl)-2-(4-phenoxyphenyl)-4,5,6,7-tetrahydropyrazolo[1,5-a]pyrimidine-3-carboxamide]: the IC50 in test [1] is 1 to 10 µM. In addition, in test [2], the greatest degradation seen (Dmax) was greater than 90% and the DC50 is 0.01 to 0.05 µM. Further, the IC50 in test [3] was less than 1 µM.

For `NC(=O)c1c(-c2ccc(Oc3ccccc3)cc2)nn2c1NCC[C@H]2C1CCN(C(=O)N2CCC(CN3CCC(c4ccc5c(c4)C(=O)N(C4CCC(=O)NC4=O)C5=O)CC3)CC2)CC1` (stereo partly drawn) [Compound 295, (7S)-7-(1-(4-((4-(2-(2,6-dioxopiperidin-3-yl)-1,3-dioxoisoindolin-5-yl)piperidin-1-yl)methyl)piperidine-1-carbonyl)piperidin-4-yl)-2-(4-phenoxyphenyl)-4,5,6,7-tetrahydropyrazolo[1,5-a]pyrimidine-3-carboxamide], the IC50 in test [1] was 1 to 10 µM; in test [3], less than 1 µM. The same compound had a Dmax in test [2] greater than 90%. In test [2], the DC50 is 0.01 to 0.05 µM.

With `NC(=O)c1c(-c2ccc(Oc3ccccc3)cc2)nn2c1NCC[C@H]2C1CCN(C(=O)N2CCC(CN3CCC(c4ccc5c(c4)CN(C4CCC(=O)NC4=O)C5=O)CC3)CC2)CC1` (stereo partly drawn) [Compound 296, (7S)-7-(1-(4-((4-(2-(2,6-dioxopiperidin-3-yl)-1-oxoisoindolin-5-yl)piperidin-1-yl)methyl)piperidine-1-carbonyl)piperidin-4-yl)-2-(4-phenoxyphenyl)-4,5,6,7-tetrahydropyrazolo[1,5-a]pyrimidine-3-carboxamide], the IC50 in test [1] lay in the range of 1 to 10 µM. In test [2], this compound gave a Dmax greater than 90% and a DC50 of less than 0.01 µM. Further, the IC50 in test [3] is less than 1 µM.
